These are literature values, as cited in patent US7332520B2, “Fused indoles as dipeptidyl peptidase inhibitors for the treatment or prevention of diabetes” (Merck & Co., Inc., priority 2003, dated 2008).

Structures are written as SMILES.

One data set has as its system hematopoiesis. As to conditions: mouse, cyclophosphamide-induced neutropenia.
The target of another data set is T1, DP-IV (Homo sapiens, UniProt P27487).
T1 construct: GRF is rapidly degraded in plasma to GRF[3-44]
T1 sequence (P27487 39-766 limits assumed): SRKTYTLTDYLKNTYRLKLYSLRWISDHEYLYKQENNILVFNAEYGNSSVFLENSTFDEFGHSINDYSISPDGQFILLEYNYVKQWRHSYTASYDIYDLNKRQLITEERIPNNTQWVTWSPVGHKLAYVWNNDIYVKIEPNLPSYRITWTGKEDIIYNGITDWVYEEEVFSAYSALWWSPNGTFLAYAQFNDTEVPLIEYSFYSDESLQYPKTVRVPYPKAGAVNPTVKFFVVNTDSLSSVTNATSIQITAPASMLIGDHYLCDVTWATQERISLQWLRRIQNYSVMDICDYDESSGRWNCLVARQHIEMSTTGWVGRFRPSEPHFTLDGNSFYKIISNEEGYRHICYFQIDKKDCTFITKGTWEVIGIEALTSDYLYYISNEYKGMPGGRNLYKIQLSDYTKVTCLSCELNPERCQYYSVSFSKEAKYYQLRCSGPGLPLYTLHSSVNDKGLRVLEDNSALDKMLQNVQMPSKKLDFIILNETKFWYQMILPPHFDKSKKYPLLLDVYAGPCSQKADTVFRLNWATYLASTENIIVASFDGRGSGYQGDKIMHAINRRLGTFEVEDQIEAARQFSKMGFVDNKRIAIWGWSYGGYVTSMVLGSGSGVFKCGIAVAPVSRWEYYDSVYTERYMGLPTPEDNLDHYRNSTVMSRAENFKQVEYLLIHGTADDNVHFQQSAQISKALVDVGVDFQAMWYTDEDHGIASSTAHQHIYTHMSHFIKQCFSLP

Turning to `CC(C)[C@H](N)C(=O)N1CCC[C@H]1B(O)O` [Val-Boro-Pro], in the data set on hematopoiesis, the hematopoiesis result was “stimulated hematopoiesis”.
As to `CC[C@H](C)[C@H](N)C(=O)N1CCC[C@H]1C(=O)N[C@H](C(=O)O)[C@@H](C)CC` [diprotin A], the “degradation of GRF in plasma to GRF[3-44]” value at DP-IV is reported as “prevented”.
